Usually melting point stands for the temperature of the solid-liquid transition.

In US11773075B2, “Modulators of p97 AAA ATPase activity” (University of Pittsburgh—Of the Commonwealth System of …, priority 2017, dated 2023) one finds IC50 and melting point data, which are given here for 45 compounds.

p97, sequence (P55072 whole entry): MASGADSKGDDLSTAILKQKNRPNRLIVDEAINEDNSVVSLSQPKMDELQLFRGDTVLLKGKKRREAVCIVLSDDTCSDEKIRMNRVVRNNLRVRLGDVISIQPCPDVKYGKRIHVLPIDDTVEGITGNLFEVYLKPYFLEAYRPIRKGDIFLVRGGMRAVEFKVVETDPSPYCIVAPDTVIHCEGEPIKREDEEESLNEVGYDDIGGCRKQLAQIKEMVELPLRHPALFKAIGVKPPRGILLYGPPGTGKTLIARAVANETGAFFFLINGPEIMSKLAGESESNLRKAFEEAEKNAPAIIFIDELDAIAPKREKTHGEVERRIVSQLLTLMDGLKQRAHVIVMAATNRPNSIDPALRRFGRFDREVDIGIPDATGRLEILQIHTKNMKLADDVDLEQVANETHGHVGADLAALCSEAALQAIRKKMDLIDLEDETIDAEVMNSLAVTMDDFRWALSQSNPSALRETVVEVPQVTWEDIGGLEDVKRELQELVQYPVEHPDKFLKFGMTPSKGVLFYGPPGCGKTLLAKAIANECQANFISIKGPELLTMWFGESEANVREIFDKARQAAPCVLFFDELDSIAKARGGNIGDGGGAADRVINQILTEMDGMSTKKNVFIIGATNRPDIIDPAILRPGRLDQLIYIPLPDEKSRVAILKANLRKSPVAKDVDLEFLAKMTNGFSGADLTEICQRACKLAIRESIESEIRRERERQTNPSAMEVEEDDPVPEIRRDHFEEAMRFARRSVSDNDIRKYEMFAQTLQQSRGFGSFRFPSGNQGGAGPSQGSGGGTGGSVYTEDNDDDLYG

One data set addresses p97 (Homo sapiens, UniProt P55072). The experiment in a line: BioMol Green ATPase assay. The format is biochemical. The conditions noted are these: 200 μM ATP, read-out: P97 Biomolgreen. The source says:
Biomol Green (Enzo) is a […] from a biochemical reaction. Because of its high sensitivity, the assay is suitable for monitoring enzyme activities at very early substrate conversions requiring very low amount of enzymes. […] The assay procedure used may be the same as in Zhang et al., “Altered cofactor regulation with disease-associated p97/VCP mutations,” Proc. Natl. Acad. Sci. USA, 112(14), E1705-E1714 (2015).
The BioMol Green ATPase assay procedure used was that which was disclosed in Zhang, et al., “Altered cofactor regulation with disease-associated p97/VCP mutations,” Proc. Natl. Acad. Sci. USA, 112(14), E1705-E1714 (2015). The following Table IV provides relevant results. The compound number correlates to the numbered compounds in Table III. Compounds also show activity in a cell-based assay such as the ubiquitin assay (assay as described in, e.g., (1) Dantuma et al., “Short-lived green fluorescent proteins for quantifying ubiquitin/proteasome-dependent proteolysis in living cells,” Nat. Biotechnol. 2000, 18, 538-543; and (2) WO 2010003908).
In the case of `Cc1cc(OCc2cnc(SC3C=CCCC3)n2-c2cccnc2)ccc1C#CCO` (stereo not shown) [Compound 1, 3-(4-((2-(Cyclohex-2-en-1-ylthio)-1-(pyridin-3-yl)-1H-imidazol-5-yl)methoxy)-2-methylphenyl)prop-2-yn-1-ol], the IC50 stood at 37 nM.
As for `Cc1cc(OCc2cnc(SC3C=CCCC3)n2-c2cccnc2)ccc1C#CCOC(=O)NC1CCOCC1` (stereo not shown) [Compound 2], the IC50 was 34 nM.
For `COCCNC(=O)OCC#Cc1ccc(OCc2cnc(SC3C=CCCC3)n2-c2cccnc2)cc1C` (stereo not shown) [Compound 3], the IC50 was found to be 39 nM.
Consider `Cc1cc(OCc2cnc(SC3C=CCCC3)n2-c2cccnc2)ccc1C#CCOC(=O)NCCN1CCOCC1` (stereo not shown) [Compound 4], for which the IC50 came out at 36 nM.
On to `Cc1cc(OCc2cnc(SC(C)C)n2-c2cccnc2)ccc1C#CCOC(=O)NCCN1CCN(C(C)C)CC1` [Compound 5], for which the IC50 was found to be 100 nM.
Regarding `COCOCC#Cc1ccc(OCc2cnc(SC3C=CCCC3)n2-c2cccnc2)cc1C` (stereo not shown) [Compound 6], the IC50 is 100 nM.
Consider `COCCOCC#Cc1ccc(OCc2cnc(SC3C=CCCC3)n2-c2cccnc2)cc1C` (stereo not shown) [Compound 7], for which the IC50 is 110 nM.
`CC(=O)NCC#Cc1ccc(OCc2cnc(SC3C=CCCC3)n2-c2cccnc2)cc1C` (stereo not shown) [Compound 8, N-(3-(4-((2-(Cyclohex-2-en-1-ylthio)-1-(pyridin-3-yl)-1H-imidazol-5-yl)methoxy)-2-methylphenyl)-prop-2-yn-1-yl)acetamide]: the IC50 was 60 nM.
Turning to `Cc1cc(OCc2cnc(SC3C=CCCC3)n2-c2cccnc2)ccc1C#CCNC1CCN(C)CC1` (stereo not shown) [Compound 9, N-(3-(4-((2-(cyclohex-2-en-1-ylthio)-1-(pyridin-3-yl)-1H-imidazol-5-yl)methoxy)-2-methylphenyl)prop-2-yn-1-yl)-1-methylpiperidin-4-amine], the IC50 was determined as 56 nM.
On the same count and under the same terms, to `Cc1cc(OCc2cnc(SC3C=CCCC3)n2-c2cccnc2)ccc1C#CCNCCN(C)C` (stereo not shown) [Compound 10] belongs 50 nM; to `Cc1cc(OCc2cnc(SC3C=CCCC3)n2-c2cccnc2)ccc1C#CCOC(=O)NCCN1CCN(C)CC1` (stereo not shown) [Compound 11], 20 nM.
On to `Cc1cc(OCc2c(Br)nc(SC3C=CCCC3)n2-c2cccnc2)ccc1C#CCO` (stereo not shown) [Compound 12], for which the IC50 was found to be 50 nM.
In the case of `Cc1cc(OCc2c(Br)nc(SC3C=CCCC3)n2-c2cccnc2)ccc1C#CCOC(=O)NCCN1CCN(C(C)C)CC1` (stereo not shown) [Compound 13], the IC50 amounted to 32 nM.
Still for that read-out and setting: to `Cc1cc(OCc2cnc(SC3C=CCCC3)n2-c2cccnc2)ccc1C#CCOC(=O)NC(C)C` (stereo not shown) [Compound 14] belongs 27 nM; to `Cc1cc(OCc2cnc(SC3C=CCCC3)n2-c2cccnc2)ccc1C#CCOC(=O)NC1CCN(C)CC1` (stereo not shown) [Compound 15], 14 nM.
Take `CCS(=O)(=O)c1ncc(COc2ccc(C#CCO)c(C)c2)n1-c1cccnc1` [Compound 16, 3-(4-((2-(Ethylsulfonyl)-1-(pyridin-3-yl)-1H-imidazol-5-yl)methoxy)-2-methylphenyl)prop-2-yn-1-ol]: the IC50 was above 6700 nM.
As for `Cc1cc(OCc2cnc(SC3CC3)n2-c2cccnc2)ccc1C#CCO` [Compound 17], the IC50 is 240 nM.
Same read-out and setting: to `Cc1cc(OCc2c(Cl)nc(SC3C=CCCC3)n2-c2cccnc2)ccc1C#CCO` (stereo not shown) [Compound 18] belongs 34 nM; to `Cc1cc(OCc2c(Br)nc(SC3CC3)n2-c2cccnc2)ccc1C#CCOC(=O)N1CCN(C(C)C)CC1` [Compound 19], 57 nM.
As to `[2H]C1([2H])C([2H])([2H])C([2H])([2H])C([2H])(Sc2nc(Br)c(COc3ccc(C#CCO)c(C)c3)n2-c2cccnc2)C1([2H])[2H]` [Compound 20], the IC50 amounted to 29 nM.
In the case of `[2H]C1([2H])C([2H])([2H])C([2H])([2H])C([2H])(Sc2nc(Br)c(COc3ccc(C#CCOC(=O)NCCN4CCN(C(C)C)CC4)c(C)c3)n2-c2cccnc2)C1([2H])[2H]` [Compound 21], the IC50 was 17 nM.
The same measure, in the same setting: to `Cc1cc(OCc2c(C#N)nc(SC3CCCC3)n2-c2cccnc2)ccc1C#CCO` [Compound 22] belongs 60 nM; to `Cc1cc(OCc2c(C#CCO)nc(SC3CCCC3)n2-c2cccnc2)ccc1C#CCO` [Compound 23, 3-(4-((2-(Cyclopentylthio)-4-(3-hydroxyprop-1-yn-1-yl)-1-(pyridin-3-yl)-1H-imidazol-5-yl)methoxy)-2-methylphenyl)prop-2-yn-1-ol], 30 nM; to `CCOC(=O)c1nc(SC2CCCC2)n(-c2cccnc2)c1COc1ccc(C#CCO)c(C)c1` [Compound 24], 50 nM.
`Cc1cc(OCc2c(C(N)=O)nc(SC3CCCC3)n2-c2cccnc2)ccc1C#CCO` [Compound 25]: the IC50 was 50 nM.
Regarding `Cc1cc(OCc2cnc(CC3CCCC3)n2-c2cccnc2)ccc1C#CCOC(=O)NC1CCN(C)CC1` [Compound 26], the IC50 came to 50 nM.
The same measure, in the same setting: to `COC(=O)/C=C/c1nc(SC2CCCC2)n(-c2cccnc2)c1COc1ccc(C#CCO)c(C)c1` [Compound 27, Methyl (E)-3-(2-(cyclopentylthio)-5-((4-(3-hydroxyprop-1-yn-1-yl)-3-methylphenoxy)methyl)-1-(pyridin-3-yl)-1H-imidazol-4-yl)acrylate] belongs 110 nM; to `Cc1cc(OCc2c(C(C)(C)O)nc(SC3CCCC3)n2-c2cccnc2)ccc1C#CCO` [Compound 28, 3-(4-((2-(Cyclopentylthio)-4-(2-hydroxypropan-2-yl)-1-(pyridin-3-yl)-1H-imidazol-5-yl)methoxy)-2-methylphenyl)prop-2-yn-1-ol], 250 nM.
Still for that read-out and setting: under `[2H]C1([2H])C([2H])([2H])C([2H])([2H])C([2H])(Sc2ncc(COc3ccc(-c4ccc(S(C)(=O)=O)cc4)c(C)c3)n2-c2cccnc2)C1([2H])[2H]` [Compound 29] stands 75 nM.
Turning to `Cc1cc(OCc2c(Br)nc(SC3C=CCCC3)n2-c2cccnc2)ccc1-c1ccc(S(C)(=O)=O)cc1` (stereo not shown) [Compound 30], the IC50 was 66 nM.
Turning to `Cc1cc(OCc2cnc(SC3C=CCCC3)n2-c2cccnc2)ccc1-c1ccc(S(C)(=O)=O)cc1` (stereo not shown) [Compound 31], the IC50 amounted to 54 nM.
Same read-out and setting: under `Cc1cc(OCc2c(Cl)nc(SC3C=CCCC3)n2-c2cccnc2)ccc1-c1ccc(S(C)(=O)=O)cc1` (stereo not shown) [Compound 32] stands 37 nM; under `Fc1cc(OCc2cnc(SC3C=CCCC3)n2-c2cccnc2)ccc1Br` (stereo not shown) [Compound 33], 130 nM.
Regarding `Cc1cc(OCc2cnc(SC3C=CCCC3)n2-c2cccnc2)ccc1Cl` (stereo not shown) [Compound 34], the IC50 was found to be 160 nM.
Consider `[2H]C1([2H])C([2H])([2H])C([2H])([2H])C([2H])(Sc2ncc(COc3cc(F)c(C#CCOC(=O)NC4CCN(C)CC4)cc3F)n2-c2cccnc2)C1([2H])[2H]` [Compound 35], for which the IC50 came out at 8 nM.
For `CN1CCC(NC(=O)OCC#Cc2cc(F)c(OCc3cnc(SC4C=CCCC4)n3-c3cccnc3)cc2F)CC1` (stereo not shown) [Compound 36], the IC50 turned out to be 11 nM.
As for `[2H]C1([2H])C([2H])([2H])C([2H])([2H])C([2H])(Sc2ncc(COc3ccc(C#CCOC(=O)NC4CCN(C)CC4)c(F)c3)n2-c2cccnc2)C1([2H])[2H]` [Compound 37, 3-(4-((2-((Cyclopentyl-d9)thio)-1-(pyridin-3-yl)-1H-imidazol-5-yl)methoxy)-2-fluorophenyl)prop-2-yn-1-yl (1-methylpiperidin-4-yl)carbamate], the IC50 amounted to 17 nM.
On to `[2H]C1([2H])C([2H])([2H])C([2H])([2H])C([2H])(Sc2ncc(COc3cc(F)c(C#CCO)cc3F)n2-c2cccnc2)C1([2H])[2H]` [Compound 38], for which the IC50 came to 19 nM.
As for `[2H]C1([2H])C([2H])([2H])C([2H])([2H])C([2H])(Sc2ncc(COc3cc(F)c(C#CCOC(=O)NC4CCN(C)CC4)c(F)c3)n2-c2cccnc2)C1([2H])[2H]` [Compound 39], the IC50 is 19 nM.
Turning to `CC#Cc1nc(SC2CCCC2)n(-c2cccnc2)c1COc1cc(F)c(C#CCOC(=O)NC2CCN(C)CC2)c(F)c1` [Compound 40], the IC50 is 20 nM.
Consider `CC#Cc1nc(SC2CCCC2)n(-c2cccnc2)c1COc1cc(F)c(C#CCO)c(F)c1` [Compound 41], for which the IC50 was determined as 40 nM.
Same read-out and setting: to `OCC#Cc1c(F)cc(OCc2c(Cl)nc(SC3C=CCCC3)n2-c2cccnc2)cc1F` (stereo not shown) [Compound 42] belongs 46 nM.
Same read-out and setting: under `[2H]C1([2H])C([2H])([2H])C([2H])([2H])C([2H])(Sc2ncc(COc3cc(F)c(C#CCO)c(F)c3)n2-c2cccnc2)C1([2H])[2H]` [Compound 43] stands 56 nM; under `[2H]C1([2H])C([2H])([2H])C([2H])([2H])C([2H])(Sc2ncc(COc3cc(Cl)c(C#CCOC(=O)NC4CCN(C)CC4)cc3Cl)n2-c2cccnc2)C1([2H])[2H]` [Compound 44], 60 nM.
For the compound `[2H]C1([2H])C([2H])([2H])C([2H])([2H])C([2H])(Sc2ncc(COc3cc(Cl)c(C#CCO)cc3Cl)n2-c2cccnc2)C1([2H])[2H]` [Compound 45], the IC50 was determined as 200 nM.

Tested on in a further data set: not given
Test: not given
Settings: not given
Turning to `Cc1cc(OCc2c(C(C)(C)O)nc(SC3CCCC3)n2-c2cccnc2)ccc1C#CCO` [Compound 28, 3-(4-((2-(Cyclopentylthio)-4-(2-hydroxypropan-2-yl)-1-(pyridin-3-yl)-1H-imidazol-5-yl)methoxy)-2-methylphenyl)prop-2-yn-1-ol], the melting point is 119 to 121 °C.
